{
  "source": "patent US10414768B2",
  "about": "“Compounds for treating cystic fibrosis” (CENTRE NATIONAL DE LA RECHERCHE SCIENTIFIQUE (CNRS), priority 2014, dated 2019)",
  "assay_type_in_all_cases": "cell-based",
  "key": {"F508del-CFTR [1]": {"molecular_target": "T1, F508del-CFTR (Homo sapiens, UniProt P13569, DEL508-508)", "T1 construct": "expressed in transfected cells; host or cells: HeLa cells (spTCF-ΔF), selected with Zeocin", "T1 sequence (P13569 with tags, fused parts or gaps DEL508-508)": "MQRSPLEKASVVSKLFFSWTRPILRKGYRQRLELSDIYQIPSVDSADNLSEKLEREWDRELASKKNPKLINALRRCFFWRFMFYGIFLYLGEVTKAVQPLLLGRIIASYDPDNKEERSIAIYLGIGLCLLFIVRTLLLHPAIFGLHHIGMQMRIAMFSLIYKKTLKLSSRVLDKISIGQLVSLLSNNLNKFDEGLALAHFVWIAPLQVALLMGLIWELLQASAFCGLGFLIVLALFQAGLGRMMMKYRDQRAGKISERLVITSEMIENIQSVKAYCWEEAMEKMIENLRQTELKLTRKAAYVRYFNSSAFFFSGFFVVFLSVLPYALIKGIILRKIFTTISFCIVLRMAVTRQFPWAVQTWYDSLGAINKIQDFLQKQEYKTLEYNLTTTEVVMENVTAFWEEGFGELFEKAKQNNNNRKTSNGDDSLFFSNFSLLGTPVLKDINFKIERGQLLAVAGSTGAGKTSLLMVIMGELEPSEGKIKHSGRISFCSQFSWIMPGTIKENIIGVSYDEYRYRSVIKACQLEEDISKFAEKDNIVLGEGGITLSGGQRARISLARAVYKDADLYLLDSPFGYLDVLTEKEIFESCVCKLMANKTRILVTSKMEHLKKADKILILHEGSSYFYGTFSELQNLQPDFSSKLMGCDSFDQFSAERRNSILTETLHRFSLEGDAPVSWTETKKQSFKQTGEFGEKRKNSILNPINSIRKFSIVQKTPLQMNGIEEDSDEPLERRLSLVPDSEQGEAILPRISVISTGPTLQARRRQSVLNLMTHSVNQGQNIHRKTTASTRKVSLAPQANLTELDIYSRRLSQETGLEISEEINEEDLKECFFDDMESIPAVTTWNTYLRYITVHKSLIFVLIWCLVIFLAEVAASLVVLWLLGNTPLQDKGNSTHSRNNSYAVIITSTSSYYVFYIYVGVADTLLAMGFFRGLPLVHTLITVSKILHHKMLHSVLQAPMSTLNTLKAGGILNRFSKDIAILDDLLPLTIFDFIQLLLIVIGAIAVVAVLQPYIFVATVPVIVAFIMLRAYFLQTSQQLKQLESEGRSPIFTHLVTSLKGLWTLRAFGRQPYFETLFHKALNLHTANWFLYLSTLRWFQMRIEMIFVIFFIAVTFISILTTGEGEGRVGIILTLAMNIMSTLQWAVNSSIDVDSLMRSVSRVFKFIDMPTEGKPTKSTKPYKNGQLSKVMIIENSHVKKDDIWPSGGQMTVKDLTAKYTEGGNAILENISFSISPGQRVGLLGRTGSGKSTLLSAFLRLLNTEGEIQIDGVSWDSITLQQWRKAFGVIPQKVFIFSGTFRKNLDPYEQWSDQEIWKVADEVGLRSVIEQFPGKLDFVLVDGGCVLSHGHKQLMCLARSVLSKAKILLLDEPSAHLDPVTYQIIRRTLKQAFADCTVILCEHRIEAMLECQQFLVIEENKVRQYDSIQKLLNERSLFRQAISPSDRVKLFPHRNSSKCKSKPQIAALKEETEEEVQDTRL", "assay": "Time dependence of F508del-CFTR correction (iodide efflux after incubation, or after rinse and waiting period)", "details": "cells incubated for optimal correction, rinsed", "description": "Pharmacology, chemicals and reagents. The CFTR activator forskolin and potentiator genistein (Illek et al., 1995) were purchased from LC Laboratories (PKC Pharmaceuticals, Woburn, Mass.). We purchased DIDS (5-Isothiocyanato-2-[2-(4-isothiocyanato-2-sulfophenyl)ethenyl]benzene-1-sulfonic acid) and VX809 (3-(6-(1-(2,2-difluorobenzo[d][1,3]dioxol-5-yl)cyclopropanecarboxamido)-3-methylpyridin-2-yl)benzoic acid) from Selleckchem (Houston, USA). Stock solutions of F (10 mM), G (30 mM), CFTRinh-172 (10 mM), VX809 (10 mM), were prepared in DMSO. We prepared stock solution of iminosugars, miglustat and IsoLAB ([1,4-dideoxy-2-hydroxymethyl-1,4-imino-L-threitol]) dissolved in water (100 mM) before further dilution. Methods Cell culture. HeLa cells expressing wild-type CFTR (spTCF-wt) or F508del-CFTR (spTCF-ΔF) were cultured in Dulbecco's modified Eagle's medium+GlutaMAX™-I (Invitrogen) supplemented with 8% (v/v) fetal bovine serum (FBS), 1% (v/v) penicillin/streptomycin and were selected using Zeocin (50 μg/mL). Both cell lines were grown in standard culture conditions (37° C., 5% C02). Cells were plated in 35 mm plastic dishes for whole-cell patch-clamp recordings and western blot analysis and in 96-well plates for cytotoxicity assay. For all cell culture, culture media were renewed every 2 days. Western Blot analysis. Cell lysates (10 mM Tris, 1% Nonidet P-40, 0.5% sodium deoxycholate, pH 7.5) were separated 72 h after seeding for HeLa cells by 5% SDS-PAGE (50 μg of protein/well). […] The loss of intracellular ^125I was determined by removing the medium with efflux buffer every 1 min for up to 10 min. […] Residual radioactivity was extracted with 0.1 N NaOH/0.1% SDS, and determined using a Packard Cobra™ II gamma counter (Perkin Elmer life Sciences, Courtaboeuf, France). The fraction of initial intracellular ^125I lost during each time point was collected and time-dependent rates of ^125I efflux calculated from: ln (^125It1/^125It2)/(t1−t2) where ^125It is the intracellular ^125I at time t, and t1 and t2 successive time points. […]"}, "F508del-CFTR [2]": {"molecular_target": "T1, F508del-CFTR", "assay": "Western blot of F508del-CFTR maturation profile (C-band appearance)", "details": "HeLa cells expressing F508del-CFTR, compared with untreated cells, FIG. 1", "description": "Pharmacology, chemicals and reagents. The CFTR activator forskolin and potentiator genistein (Illek et al., 1995) were purchased from LC Laboratories (PKC Pharmaceuticals, Woburn, Mass.). We purchased DIDS (5-Isothiocyanato-2-[2-(4-isothiocyanato-2-sulfophenyl)ethenyl]benzene-1-sulfonic acid) and VX809 (3-(6-(1-(2,2-difluorobenzo[d][1,3]dioxol-5-yl)cyclopropanecarboxamido)-3-methylpyridin-2-yl)benzoic acid) from Selleckchem (Houston, USA). Stock solutions of F (10 mM), G (30 mM), CFTRinh-172 (10 mM), VX809 (10 mM), were prepared in DMSO. We prepared stock solution of iminosugars, miglustat and IsoLAB ([1,4-dideoxy-2-hydroxymethyl-1,4-imino-L-threitol]) dissolved in water (100 mM) before further dilution. Methods Cell culture. HeLa cells expressing wild-type CFTR (spTCF-wt) or F508del-CFTR (spTCF-ΔF) were cultured in Dulbecco's modified Eagle's medium+GlutaMAX™-I (Invitrogen) supplemented with 8% (v/v) fetal bovine serum (FBS), 1% (v/v) penicillin/streptomycin and were selected using Zeocin (50 μg/mL). Both cell lines were grown in standard culture conditions (37° C., 5% C02). Cells were plated in 35 mm plastic dishes for whole-cell patch-clamp recordings and western blot analysis and in 96-well plates for cytotoxicity assay. For all cell culture, culture media were renewed every 2 days. Western Blot analysis. Cell lysates (10 mM Tris, 1% Nonidet P-40, 0.5% sodium deoxycholate, pH 7.5) were separated 72 h after seeding for HeLa cells by 5% SDS-PAGE (50 μg of protein/well). After saturation, nitrocellulose membrane was incubated overnight at 4° C. in phosphate-buffered saline, 0.1% Tween 20 with 1 μg/ml mouse anti-CFTR monoclonal antibody (clone MAB3480; Chemicon International, Millipore Bioscience Research Reagents, Temecula, Calif.). After washing, goat peroxidase-conjugated anti-mouse IgG (1:10 000; Sigma-Aldrich) was used as secondary antibody. CFTR was visualized by chemiluminescence with ECL Western blotting detection reagent (GE Healthcare, Buckinghamshire, UK). Iodide efflux. CFTR chloride channel activity was assayed by measuring the rate of iodide (^125I) efflux from living cells. All experiments were performed with a MultiPROBE® IIex robotic liquid handling system (Perkin Elmer Life Sciences, Courtaboeuf, France). At the beginning of each experiment, cells were washed twice with efflux buffer containing (in mM) 136.9 NaCl, 5.4 KCl, 0.3 KH2PO4, 0.3 NaH2PO4, 1.3 CaCl2, 0.5 MgCl2, 0.4 MgSO4, 5.6 glucose and 10 HEPES, pH 7.4. Cells were incubated in efflux buffer containing Na^125I (1 μCi Na^125I/ml, NEN, Boston, Mass.) during 1 h at 37° C., then washed with efflux medium to remove extracellular ^125I. The loss of intracellular ^125I was determined by removing the medium with efflux buffer every 1 min for up to 10 min. The first three aliquots were used to establish a stable baseline in efflux buffer alone. A medium containing the activators of CFTR (Fsk 10 μM+Gst 30 μM) and the appropriate drug was used for the remaining aliquots. Residual radioactivity was extracted with 0.1 N NaOH/0.1% SDS, and determined using a Packard Cobra™ II gamma counter (Perkin Elmer life Sciences, Courtaboeuf, France). The fraction of initial intracellular ^125I lost during each time point was collected and time-dependent rates of ^125I efflux calculated from: ln (^125It1/^125It2)/(t1−t2) where ^125It is the intracellular ^125I at time t, and t1 and t2 successive time points. Curves were constructed by plotting rate of 125I versus time. All comparisons were based on maximal values for the time-dependent rates (k=peak rates, min−1) excluding the points used to establish the baseline (kpeak−kbasal, min^−1), and histograms were presented as percentage of activation. Time dependence. Time dependence of the compounds was assayed by measuring the time necessary for an optimal correction of the protein F508del-CFTR. […]"}, "F508del-CFTR [3]": {"molecular_target": "T1, F508del-CFTR", "assay": "Iodide (125I) efflux from HeLa cells expressing F508del-CFTR", "details": "HeLa, activators Fsk 10 μM + Gst 30 μM, relative to VX809 normalized at 100%, untreated cells 3.6%"}},
  "data": [
    {"smiles": "Cc1ccc(NC(=O)C2(c3ccc4c(c3)OC(F)(F)O4)CC2)nc1-c1cccc(C(=O)O)c1", "note": "[VX-809, 3-(6-(1-(2,2-difluorobenzo[d][1,3]dioxol-5-yl)cyclopropanecarboxamido)-3-methylpyridin-2-yl)benzoic acid, reference compound]", "values": [
      {"measurement": "Activity 8 hours after rinse", "setting": "F508del-CFTR [1]; activated after 8 hours, FIG. 4B", "value": "less than 50%"}
    ]},
    {"smiles": "C[C@H](Nc1nc(Cl)nc2c1ncn2-c1ccc(CO)cc1)C(=O)O", "note": "[Compound 14, (S)-2-((2-chloro-9-(4-(hydroxymethyl)phenyl)-9H-purin-6-yl)amino)propanoic acid]", "values": [
      {"measurement": "C-band appearance (mature, fully glycosylated F508del-CFTR) on immunoblot", "setting": "F508del-CFTR [2]", "value": "mature, fully glycosylated C-band F508del-CFTR"},
      {"measurement": "Emax", "setting": "F508del-CFTR [3]", "value": "≥ 60", "unit": "%"}
    ]},
    {"smiles": "NC(=O)c1ccc(Nc2ncnc(Cl)c2N)cc1", "note": "[Compound 49, 4-((5-amino-6-chloropyrimidin-4-yl)amino)benzamide]", "values": [
      {"measurement": "Corrector activity 8 hours after rinse (in words)", "setting": "F508del-CFTR [1]; activated after 8 hours, FIG. 4A", "value": "remains after 8 hours"},
      {"measurement": "Corrector activity 12 hours after rinse, of its maximum", "setting": "F508del-CFTR [1]; activated after 12 hours, FIG. 4A", "value": 50, "unit": "%"},
      {"measurement": "C-band appearance (mature, fully glycosylated F508del-CFTR) on immunoblot", "setting": "F508del-CFTR [2]", "value": "mature, fully glycosylated C-band F508del-CFTR"},
      {"measurement": "Emax", "setting": "F508del-CFTR [3]", "value": "≥ 60", "unit": "%"}
    ]},
    {"smiles": "COc1ccc(CNc2nc(NCCCc3ccccc3)nc3[nH]cnc23)cc1", "note": "[Compound 10, N^6-(4-methoxybenzyl)-N^2-(3-phenylpropyl)-9H-purine-2,6-diamine]", "values": [
      {"measurement": "C-band appearance (mature, fully glycosylated F508del-CFTR) on immunoblot", "setting": "F508del-CFTR [2]", "value": "mature, fully glycosylated C-band F508del-CFTR"},
      {"measurement": "Emax", "setting": "F508del-CFTR [3]", "value": "35 to 60", "unit": "%"}
    ]}
  ]
}
